Data: patent US20240009104A1, “PROCESS FOR EXTRACTION AND HEMI-SYNTHESIS OF PYRANOANTHOCYANINS AND SKINCARE COSMETIC FORMULATIONS CONTAINING THEM” (UNIVERSIDADE DO PORTO, priority 2021, published 2024)

What was measured:
M. luteus ATCC 4698 = test: MIC/MBC broth microdilution, M. luteus; type: cell-based; details: Micrococcus luteus, ATCC4698; M. luteus ATCC 4698, 24 h, 0.5 to 512 μg/mL
Protocol: (§1) Compounds/extracts were tested against the following bacterial strains: Pseudomonas aeruginosa ATCC 27853, Staphylococcus aureus ATCC 29213, Staphylococcus epidermidis ATCC 14990, Streptococcus pyogenes ATCC 19615, Micrococcus luteus ATCC 4698. Prior to each in vitro bioassay, fresh cultures were obtained for each strain using the appropriate medium and incubation conditions as follows. Staphylococcus spp. and P. aeruginosa were grown on Mueller-Hinton (MH) agar (Liofilchemsrl, Italy) for 24 h at 37° C., while M. luteus was grown in Tryptic Soy agar (TSA, Liofilchem srl, Italy) for 24 h at 30° C. and S. pyogenes on TSA with 5% defibrinated sheep blood (Thermo Fisher Scientific, USA) for 24 h at 37° C. in an atmosphere of 5% CO2.
(§2) Minimum inhibitory concentrations (MICs) of compounds/extracts were determined using a broth microdilution technique, following the recommendations of the Clinical and Laboratory Standards Institute. Briefly, fresh colonies of each strain were used to prepare the respective inocula with an optical density at 600 nm (OD600) equal to 0.1 (approximately 1^10^8 CFU/mL). For all strains, cation-adjusted Mueller-Hinton broth (MHB2, Sigma-Aldrich, USA) was used, but in the case of S. pyogenes, MBH2 was previously supplemented with 2.5% lysed horse blood (Thermo Fisher Scientific, USA). In 96-well, U-bottom, microplates, each compound was serially diluted in the respective medium from stock solutions (10 mg/mL in DMSO) to achieve in-test concentrations ranging from 0.5 to 512 μg/mL. Wells were inoculated so that the final concentration in eachwas of 5×10^5 CFU/mL. The microplates were incubated at 37° C. for 24 h. The MIC was defined as the lowest concentration of compound inhibiting the bacterial growth visible to the naked eye.

[1] = tested on: S. epidermidis ATCC 14990; test: MIC/MBC broth microdilution, S. epidermidis; type: cell-based; details: Staphylococcus epidermidis, ATCC14990; S. epidermidis ATCC 14990, 24 h, 0.5 to 512 μg/mL
Protocol: as §1, §2

S. pyogenes ATCC 19615 = test: MIC/MBC broth microdilution, S. pyogenes; type: cell-based; details: Streptococcus pyogenes, ATCC19615; S. pyogenes ATCC 19615, 24 h, 0.5 to 512 μg/mL
Protocol: as §1, §2

S. aureus ATCC 29213 = test: MIC/MBC broth microdilution, S. aureus; type: cell-based; details: Staphylococcus aureus, ATCC29213; S. aureus ATCC 29213, 24 h, 0.5 to 512 μg/mL
Protocol: as §1, §2

[2] = Determination of solar protection factor (SPF), spectrophotometric, Mansur equation; type: physicochemical; details: for SPF: 1.0 mg in 5 mL ethanol, absorbance 290-320 nm, Mansur equation
Protocol: Sample preparation 1.0 mg of all samples was weighed, transferred to a 5 mL volumetric flask, diluted to volume with ethanol, followed by ultra-sonication for 5 min. The absorption spectra of samples in solution were obtained in the range of 290 to 450 nm using 1 cm quartz cell, and ethanol as a blank. The absorption data were obtained in the range of 290 to 320, every 5 nm, and 3 determinations were made at each point, followed by the application of Mansur equation.
Where CF (correction factor) is 10, EE (A) is erythmogenic effect of radiation with wavelength λ, Abs is Spectrophotometric absorbance values at wavelength λ. The obtained absorbance values are multiplied with EE (λ)×1 (λ) and then their summation is taken and multiplied with correction factor to obtain the SPF values.

P. aeruginosa ATCC 27853 = test: MIC/MBC broth microdilution, P. aeruginosa; type: cell-based; details: Pseudomonas aeruginosa, ATCC27853; P. aeruginosa ATCC 27853, 24 h, 0.5 to 512 μg/mL
Protocol: as §1, §2

[3] = Cytotoxicity to human fibroblasts and keratinocytes, MTT assay; type: cell-based; details: HaCat, HFF-1 and Heka cells, 0.78-100 μM
Protocol: For this purpose, immortalized human foreskin fibroblasts HFF-1 were grown as monolayers from passage number 9-18 and maintained at 37° C. in an atmosphere of 5% CO2. For routine maintenance, the cells were cultured in 22.1 cm^2 plates as monolayers and maintained in Dulbecco's Modified Eagle Medium (DMEM, from Cell Lines Service), supplemented with 10% fetal bovine serum (FBS, from CLS) and 1% of antibiotic/antimycotic solution (100 units/mL of penicillin, 10 mg/mL of streptomycin and 0.25 mg/mL of amphotericin B from Sigma-Aldrich, St. Louis, MO, United States). The medium was replaced every two days and the cells were harvested every two weeks.
The cytotoxicity of the anthocyanins derivatives to HFF-1, Heka, and HaCat cells was evaluated using the standard MTT assay. Briefly, cells were seeded at a density of 5×10^4 cells or 1.5×10^4 cells/well onto 96-well plates and incubated at 37° C. in a 5% CO2 atmosphere. Cells were allowed to grow for 24 h, and serially diluted solutions of the different compounds (0.78-100 μM) were added to the wells. Then, cells were incubated for 48 h at 37° C., after which wells were washed once with phosphate buffered saline solution (PBS, Sigma-Aldrich, St. Louis, MO, United States), followed by addition of 0.45 mg/mL of MTT solution to each well. Crystals were allowed to form for 2 h. […] Absorbance was read at 570 nm.

## O=C(O)C1=Cc2c(OC3OC(CO)C(O)C(O)C3O)c(-c3ccc(O)c(O)c3)[o+]c3cc(O)cc(c23)O1 (centres unmarked) [II-A, Carboxypyranocyanidin-3-glucoside]
M. luteus ATCC 4698
  MIC: > 512 µg/mL
[1]
  MIC: > 512 µg/mL
S. pyogenes ATCC 19615
  MIC: > 512 µg/mL
S. aureus ATCC 29213
  MIC: > 512 µg/mL
[2]
  SPF: 20.71 ± 0.18
P. aeruginosa ATCC 27853
  MIC: > 512 µg/mL

## CC1=Cc2c(OC3OC(CO)C(O)C(O)C3O)c(-c3ccc(O)c(O)c3)[o+]c3cc(O)cc(c23)O1 (centres unmarked) [III-A, Methylpyranocyanidin-3-glucoside]
M. luteus ATCC 4698
  MIC: > 512 µg/mL
[1]
  MIC: > 512 µg/mL
S. pyogenes ATCC 19615
  MIC: > 512 µg/mL
S. aureus ATCC 29213
  MIC: > 512 µg/mL
[2]
  SPF: 18.53 ± 0.15
P. aeruginosa ATCC 27853
  MIC: > 512 µg/mL

## CN(C)c1ccc(C2=Cc3c(OC4OC(CO)C(O)C(O)C4O)c(-c4ccc(O)c(O)c4)[o+]c4cc(O)cc(c34)O2)cc1 (centres unmarked) [V-C, Pyranocyanidin-3-glucoside-(4-dimethylamino)-cinnamyl]
[2]
  SPF: 13 ± 0.04

## Malvidin-3-O-glucoside-4-vinylcatechol [V-B]
[2]
  SPF: 10.02 ± 0.00

## COc1cc(-c2[o+]c3cc(O)cc4c3c(c2OC2OC(CO)C(O)C(O)C2O)C=C(/C=C/c2c(O)cc(O)c3c2OC(c2ccc(O)c(O)c2)C(O)C3)O4)cc(OC)c1O (centres unmarked) [VI-B, Vinylpyranomalvidin-3-O-glucoside-cathechin]
[2]
  SPF: 8.35 ± 0.06

## CN(C)c1ccc(/C=C/C=C/C2=Cc3c(OC4OC(CO)C(O)C(O)C4O)c(-c4ccc(O)c(O)c4)[o+]c4cc(O)cc(c34)O2)cc1 (centres unmarked) [VIII-A, 4-(Dimethylamino)-cinnamyl-10-butadienylidene-pyranocyanidin-3-O-glucoside]
[2]
  SPF: 14.78 ± 0.02

## COc1cc(-c2[o+]c3cc(O)cc4c3c(c2OC2OC(CO)C(O)C(O)C2O)C=C(C(=O)O)O4)cc(OC)c1O (centres unmarked) [II-B, Carboxypyranomalvidin-3-glucoside]
M. luteus ATCC 4698
  MIC: > 512 µg/mL
[1]
  MIC: > 512 µg/mL
S. pyogenes ATCC 19615
  MIC: > 512 µg/mL
[3]
  IC50 at 48 h: > 100 µM
S. aureus ATCC 29213
  MIC: > 512 µg/mL
[2]; 0.2 mg/mL
  UV protection (0.2 mg/mL): 13.92 ± 0.04
[2]
  SPF: 13.92 ± 0.04
P. aeruginosa ATCC 27853
  MIC: > 512 µg/mL

## Cyanidin-3-O-glucoside-4-vinylcatechol [V-A]
[2]
  SPF: 24.00 ± 0.01

## 4-(Dimethylamino)-cinnamyl-10-vinylene-pyranomalvidin-3-glucoside [VII-B]
[2]
  SPF: 15.02 ± 0.07
